Results from patent US20060223879A1, “Non-steroidal farnesoid x receptor modulators” (priority 2002, published 2006).
Values joined by “and” are separate entries in the source; they are usually repeats but may differ in a detail not shown here. Equal entries are not always repeated. “Also recorded” adds a separate entry of the source. Where two headings read alike, the source gives them in different places.

Key:
FXR = molecular target: T1, FXR (Homo sapiens, UniProt Q96RI1); experiment: cell-based transcription assay, FXR responsive promoter linked to a luciferase reporter; set-up: RE: scale not given here; conditions: for RE: RE not defined in the source
T1 construct: using a full length FXR on a natural response element; expressed in transfected cells
T1 sequence (Q96RI1 1-486): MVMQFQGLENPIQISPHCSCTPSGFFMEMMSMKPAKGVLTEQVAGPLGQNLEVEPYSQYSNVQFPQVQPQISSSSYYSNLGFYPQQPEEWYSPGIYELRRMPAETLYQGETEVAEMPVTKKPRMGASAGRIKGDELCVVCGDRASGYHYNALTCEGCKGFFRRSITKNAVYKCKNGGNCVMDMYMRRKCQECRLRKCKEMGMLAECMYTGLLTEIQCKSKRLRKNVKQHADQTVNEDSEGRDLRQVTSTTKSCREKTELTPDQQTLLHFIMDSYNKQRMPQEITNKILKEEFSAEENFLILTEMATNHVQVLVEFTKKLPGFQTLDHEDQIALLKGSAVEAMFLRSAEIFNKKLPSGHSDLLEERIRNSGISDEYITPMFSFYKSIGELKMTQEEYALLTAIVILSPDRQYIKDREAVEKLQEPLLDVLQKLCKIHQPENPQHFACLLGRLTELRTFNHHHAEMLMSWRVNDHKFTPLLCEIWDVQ
How it was run: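 Cells co-transfected with full-length FXR and a luciferase reporter carrying a natural hormone response element on a minimal promoter.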

SXR = molecular target: T2, SXR (Homo sapiens, UniProt O75469); experiment: screen against a panel of nuclear receptors: SXR activation; assay type: cell-based; conditions: nuclear receptor panel
T2 sequence (O75469 1-434): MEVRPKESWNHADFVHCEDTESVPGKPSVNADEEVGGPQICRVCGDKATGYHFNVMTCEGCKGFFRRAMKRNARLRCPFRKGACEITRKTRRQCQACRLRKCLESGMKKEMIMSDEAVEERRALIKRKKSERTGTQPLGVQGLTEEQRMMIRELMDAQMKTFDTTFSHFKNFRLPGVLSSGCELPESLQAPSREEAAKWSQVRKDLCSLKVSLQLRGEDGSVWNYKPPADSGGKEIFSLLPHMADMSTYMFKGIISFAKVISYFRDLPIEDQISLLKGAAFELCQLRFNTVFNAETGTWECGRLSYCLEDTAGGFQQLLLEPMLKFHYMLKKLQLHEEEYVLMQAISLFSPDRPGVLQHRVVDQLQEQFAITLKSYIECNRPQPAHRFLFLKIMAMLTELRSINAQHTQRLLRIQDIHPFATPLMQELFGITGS

[1] = Tables 1-15, FXR activation, cell-based reporter assay, read-out: EC50
[2] = library screening hits and leads, read-out: activity (EC50)
[3] = FXR activation, cell-based reporter assay, read-out: EC50

SMILES: COC(=O)C=Cc1cccc(N(Cc2ccc(C=CC(=O)N(C)C)cc2)C(=O)C2CCCCC2)c1 [Compound 154]
- EC50 (FXR; [1]): > 1000 nM
- RE (FXR; Tables 1-15): 0.66

SMILES: COc1cc(CN(Cc2ccccc2)C(=O)NC2CCCC2)cc2c1OC(C)(C)C=C2 [Compound 18]
- EC50 (FXR; [2]): 5000 to 10000 nM

SMILES: COC(=O)C=Cc1cccc(N(Cc2ccc(C=Cc3ccc(F)cc3)cc2)C(=O)C2CCCCC2)c1 [Compound 204]
- EC50 (FXR; [1]): 185 nM
- RE (FXR; Tables 1-15): 0.53
- FXR activation (in words) (FXR; cell-based reporter assay): excellent activity; also recorded: among the most active

SMILES: COC(=O)/C=C/c1cccc(N(Cc2ccc(-c3cccc(C)c3)cc2)C(=O)NC(C)C)c1 [Compound 240]
- EC50 (FXR; [1]): 1330 nM
- RE (FXR; Tables 1-15): 0.53

SMILES: COC(=O)/C=C/c1cccc(N(Cc2ccc(-c3cc(Cl)cc(Cl)c3)cc2)C(=O)NC(C)C)c1 [Compound 222]
- EC50 (FXR; [1]): > 10000 nM
- RE (FXR; Tables 1-15): 0.10

SMILES: COC(=O)CCc1cccc(N(Cc2ccc(/C=C/C(=O)OC(C)(C)C)cc2)C(=O)C2CCCCC2)c1 [Compound 139]
- EC50 (FXR; [3]): 274 nM
- RE (FXR; Tables 1-15): RE^a = 1.38

SMILES: COC(=O)/C=C/c1cccc(N(Cc2ccc(-c3ccccc3)cc2)C(=O)C2CCCCC2)c1 [Compound 124]
- EC50 (FXR; [3]): 510 nM and 69 nM
- RE (FXR; Tables 1-15): 0.71

SMILES: COC(=O)/C=C/c1cccc(N(Cc2cccc(Br)c2)C(=O)C2CCCCC2)c1 [Compound 113]
- EC50 (FXR; [1]): > 1000 nM
- RE (FXR; Tables 1-15): 0.10

SMILES: COC(=O)C=Cc1cccc(N(Cc2ccc(-c3ccc(C(C)=O)s3)cc2)C(=O)C2CCCCC2)c1 [Compound 129]
- EC50 (FXR; [3]): 256 nM
- EC50 (FXR; [1]): 256 nM
- RE (FXR; Tables 1-15): 1.48

SMILES: COc1c(CN(Cc2ccccc2)C(=O)C2CC2)ccc2c1OC(C)(C)C=C2 [Compound 23]
- EC50 (FXR; [2]): 5000 to 10000 nM

SMILES: COC(=O)/C=C/c1cccc(N(Cc2ccc(/C=C/C(=O)OC(C)(C)C)cc2)C(=O)C2CCCCC2)c1 [Compound 105]
- EC50 (FXR; [3]): 127 nM and 127 to 250 nM
- RE (FXR; Tables 1-15): 2.12

SMILES: COC(=O)/C=C/c1cccc(N(Cc2ccc(/C=C/c3c(C)cc(C)cc3C)cc2)C(=O)C(C)C)c1 [Compound 196]
- EC50 (FXR; [1]): 149 nM
- RE (FXR; Tables 1-15): 0.30

SMILES: CC(C)(C)OC(=O)/C=C/c1cccc(N(Cc2ccc(CCC(=O)OC(C)(C)C)cc2)C(=O)C2CCCCC2)c1 [Compound 160]
- EC50 (FXR; [1]): > 1000 nM
- RE (FXR; Tables 1-15): 0.84

SMILES: COC(=O)/C=C/c1cccc(N(Cc2ccc(-c3ccc(C(C)(C)C)cc3)cc2)C(=O)NC(C)C)c1 [Compound 264]
- EC50 (FXR; [1]): 262 nM
- RE (FXR; Tables 1-15): 1.02

SMILES: COC(=O)/C=C/c1cccc(N(Cc2ccc(-c3cccc(OC)c3)cc2)C(=O)NC(C)C)c1 [Compound 225]
- EC50 (FXR; [1]): 1370 nM
- RE (FXR; Tables 1-15): 0.41

SMILES: COC(=O)C=Cc1cccc(N(Cc2ccc(C=CC(=O)OC(C)(C)C)cc2O)C(=O)C2CCCCC2)c1 [Compound 161]
- EC50 (FXR; [1]): > 1000 nM
- RE (FXR; Tables 1-15): 0.12

SMILES: COC(=O)/C=C/c1cccc(N(Cc2ccc3c(c2OC)OC(C)(C)[C@@H](OC(C)=O)[C@H]3OC(C)=O)C(=O)c2ccccc2)c1 (relative stereo) [Compound 95]
- FXR activation (in words) (FXR; cell-based reporter assay): Nor did the addition of H-bond acceptors such as in 89, 90, 95, 99 and 101 improve the ability of the parent compound 68 to activate FXR

SMILES: COC(=O)C=Cc1cccc(N(Cc2ccc(C=CC(=O)OC(C)C)cc2)C(=O)C2CCCCC2)c1 [Compound 152]
- EC50 (FXR; [1]): 163 nM
- RE (FXR; Tables 1-15): 1.97

SMILES: CC(C)(C)OC(=O)C=Cc1ccc(CN(C(=O)C2CCCCC2)c2cccc(C=CCOc3ccccc3)c2)cc1 [Compound 138]
- EC50 (FXR; [1]): 2830 nM
- RE (FXR; Tables 1-15): 0.45

SMILES: COC(=O)/C=C/c1cccc(N(Cc2ccc(-c3ccc(C)cc3)cc2)C(=O)NC(C)C)c1 [Compound 237]
- EC50 (FXR; [1]): 449 nM
- RE (FXR; Tables 1-15): 0.80

SMILES: COC(=O)/C=C/c1cccc(N(Cc2ccc3c(c2OC)OC(C)(C)C2C3C2(Cl)Cl)C(=O)C2CCCCC2)c1 (stereo not drawn) [Compound 149]
- EC50 (FXR; [3]): 188 nM
- RE (FXR; Tables 1-15): 0.50
- SXR activation (in words) (SXR): potently activated SXR

SMILES: COC(=O)/C=C/c1cccc(N(Cc2ccc(-c3ccccc3OC)cc2)C(=O)C(C)C)c1 [Compound 219]
- EC50 (FXR; [1]): 377 nM
- RE (FXR; Tables 1-15): 0.28

SMILES: COC(=O)/C=C/c1cccc(N(Cc2ccc(-c3ccc(SC)cc3)cc2)C(=O)C2CCCCC2)c1 [Compound 125]
- EC50 (FXR; [3]): 69 nM
- EC50 (FXR; [1]): 89 nM
- RE (FXR; Tables 1-15): 1.74
- FXR activation (in words) (FXR; cell-based reporter assay): excellent activity
